Results on 23 compounds are retold here after patent US10913727B2, “Modulators of the integrated stress pathway” (Calico Life Sciences LLC, priority 2016, dated 2021).

Structures are written as SMILES.

The subject of this experiment is HEK293T cells carrying the ATF4 luciferase reporter. Description: ATF4-Luc assay, in vitro model of Vanishing Cell White Matter Disease (VWMD). The class given is cell-based. The settings on record: Homo sapiens, HEK-293T, 1 μg/mL tunicamycin, 7 hours, One Glo luminescence. An outline of the steps:
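Reporter cells were stably generated by retroviral transduction and puromycin selection, then seeded at 30,000 cells/well. Next day, cells received 1 μg/mL tunicamycin with 200 nM test compound for 7 h, and luciferase luminescence was read with a one-step reagent. Values reported as EC50.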
Take `O=C(COc1ccc(Cl)c(F)c1)NC12CC(NC(=O)c3cnc(C4CCC(F)(F)CC4)o3)(C1)C2` [Compound 126, N-{3-[2-(4-chloro-3-fluorophenoxy)acetamido]bicyclo[1.1.1]pentan-1-yl}-2-(4,4-difluorocyclohexyl)-1,3-oxazole-5-carboxamide]: the EC50 fell in the range of 50 to 250 nM.
As to `O=C(COc1ccc2c(c1)OC(F)(F)O2)NC12CC(NC(=O)c3cnc(C4CC4)o3)(C1)C2` [Compound 717, 2-cyclopropyl-N-(3-{2-[(2,2-difluoro-2H-1,3-benzodioxol-5-yl)oxy]acetamido}bicyclo[1.1.1]pentan-1-yl)-1,3-oxazole-5-carboxamide], the EC50 fell in the range of 250 to 1000 nM.
The value for `O=C(COc1ccc(Cl)c(F)c1)NC12CC(NC(=O)c3nc4ccccc4o3)(C1)C2` [Compound 347, N-{3-[2-(4-chloro-3-fluorophenoxy)acetamido]bicyclo[1.1.1]pentan-1-yl}-1,3-benzoxazole-2-carboxamide] was 250 to 1000 nM; that for `O=C(COc1ccc(Cl)c(F)c1)NC12CC(NC(=O)c3ccc(OCCO)nc3)(C1)C2` [Compound 161, N-{3-[2-(4-chloro-3-fluorophenoxy)acetamido]bicyclo[1.1.1]pentan-1-yl}-6-(2-hydroxyethoxy)pyridine-3-carboxamide] was 1000 to 2000 nM; that for `O=C(COc1ccc(Cl)c(F)c1)NC12CC(NC(=O)c3cnc4[nH]ccc4c3)(C1)C2` [Compound 746, N-{3-[2-(4-chloro-3-fluorophenoxy)acetamido]bicyclo[1.1.1]pentan-1-yl}-1H-pyrrolo[2,3-b]pyridine-5-carboxamide] was 50 to 250 nM.
Then `O=C(COc1ccc(Cl)c(F)c1)NC12CC(NC(=O)c3sccc3F)(C1)C2` [Compound 796, N-{3-[2-(4-chloro-3-fluorophenoxy)acetamido]bicyclo[1.1.1]pentan-1-yl}-3-fluorothiophene-2-carboxamide], with above 2000 nM; and `O=C(COc1ccc(Cl)c(F)c1)NC12CC(NC(=O)c3ccc(CCC4CC4)cn3)(C1)C2` [Compound 289, N-{3-[2-(4-chloro-3-fluorophenoxy)acetamido]bicyclo[1.1.1]pentan-1-yl}-5-(2-cyclopropylethyl)pyridine-2-carboxamide], with below 50 nM; and `Cc1ccn2c(=O)c(C(=O)NC34CC(NC(=O)COc5ccc(Cl)c(F)c5)(C3)C4)cnc2c1` [Compound 314, N-{3-[2-(4-chloro-3-fluorophenoxy)acetamido]bicyclo[1.1.1]pentan-1-yl}-8-methyl-4-oxo-4H-pyrido[1,2-a]pyrimidine-3-carboxamide], with above 2000 nM.
The value for `O=C(COc1ccc(Cl)c(F)c1)NC12CC(NC(=O)c3ccc(Cn4cncn4)cc3)(C1)C2` [Compound 849, N-{3-[2-(4-chloro-3-fluorophenoxy)acetamido]bicyclo[1.1.1]pentan-1-yl}-4-[(1H-1,2,4-triazol-1-yl)methyl]benzamide] was 1000 to 2000 nM; that for `CCc1cc(C(=O)NC23CC(NC(=O)COc4ccc(Cl)c(Cl)c4)(C2)C3)n(C)n1` [Compound 584, N-{3-[2-(3,4-dichlorophenoxy)acetamido]bicyclo[1.1.1]pentan-1-yl}-3-ethyl-1-methyl-1H-pyrazole-5-carboxamide] was below 50 nM; that for `O=C(COc1ccc(Cl)c(F)c1)NC12CC(NC(=O)c3cccc(F)c3F)(C1)C2` [Compound 509, N-{3-[2-(4-chloro-3-fluorophenoxy)acetamido]bicyclo[1.1.1]pentan-1-yl}-2,3-difluorobenzamide] was 250 to 1000 nM.
With `O=C(COc1ccc(Cl)c(F)c1)NC12CC(NC(=O)c3coc4ccccc34)(C1)C2` [Compound 243, N-{3-[2-(4-chloro-3-fluorophenoxy)acetamido]bicyclo[1.1.1]pentan-1-yl}-1-benzofuran-3-carboxamide], the EC50 lay within 250 to 1000 nM.
The value for `Cn1cc(C(=O)NC23CC(NC(=O)COc4ccc(Cl)c(F)c4)(C2)C3)c(C(F)(F)F)n1` [Compound 868, N-{3-[2-(4-chloro-3-fluorophenoxy)acetamido]bicyclo[1.1.1]pentan-1-yl}-1-methyl-3-(trifluoromethyl)-1H-pyrazole-4-carboxamide] was above 2000 nM.
Regarding `O=C(COc1ccc(Cl)cc1)NC12CC(Nc3noc(-c4ccc(Cl)cc4)n3)(C1)C2` [Compound 287, 2-(4-chlorophenoxy)-N-(3-{[5-(4-chlorophenyl)-1,2,4-oxadiazol-3-yl]amino}bicyclo[1.1.1]pentan-1-yl)acetamide], the EC50 is 50 to 250 nM.
The value for `O=C(COc1ccc(Cl)c(F)c1)NC12CC(NC(=O)c3ccc4ccccc4n3)(C1)C2` [Compound 586, N-{3-[2-(4-chloro-3-fluorophenoxy)acetamido]bicyclo[1.1.1]pentan-1-yl}quinoline-2-carboxamide] was below 50 nM.
Then `Cc1cc(C(=O)NC23CCC(NC(=O)COc4ccc(Cl)c(F)c4)(CC2)CC3)on1` [Compound 444, N-{4-[2-(4-chloro-3-fluorophenoxy)acetamido]bicyclo[2.2.2]octan-1-yl}-3-methyl-1,2-oxazole-5-carboxamide], with above 2000 nM; and `O=C(COc1ccc(Cl)c(F)c1)NC12CC(NC(=O)c3cc(NC4CC4)ccn3)(C1)C2` [Compound 390, N-{3-[2-(4-chloro-3-fluorophenoxy)acetamido]bicyclo[1.1.1]pentan-1-yl}-4-(cyclopropylamino)pyridine-2-carboxamide], with 1000 to 2000 nM; and `O=C(COc1ccc(Cl)c(F)c1)NC12CCC(NC(=O)c3ccccn3)(C1)C2` [Compound 356, N-{4-[2-(4-chloro-3-fluorophenoxy)acetamido]bicyclo[2.1.1]hexan-1-yl}pyridine-2-carboxamide], with above 2000 nM.
The value for `CCc1nc(C(=O)NC23CC(NC(=O)COc4ccc5c(c4)OC(F)(F)O5)(C2)C3)cs1` [Compound 699, N-(3-{2-[(2,2-difluoro-2H-1,3-benzodioxol-5-yl)oxy]acetamido}bicyclo[1.1.1]pentan-1-yl)-2-ethyl-1,3-thiazole-4-carboxamide] was 250 to 1000 nM; that for `Cc1cc(C(=O)NC23CCC(NC(=O)COc4ccc(Cl)c(F)c4)(CC2)C(=O)C3)on1` [Compound 630, N-{4-[2-(4-chloro-3-fluorophenoxy)acetamido]-3-oxobicyclo[2.2.2]octan-1-yl}-3-methyl-1,2-oxazole-5-carboxamide] was 250 to 1000 nM.
For the compound `COc1cscc1C(=O)NC12CC(NC(=O)COc3ccc(Cl)c(F)c3)(C1)C2` [Compound 557, N-{3-[2-(4-chloro-3-fluorophenoxy)acetamido]bicyclo[1.1.1]pentan-1-yl}-4-methoxythiophene-3-carboxamide], the EC50 was above 2000 nM.
Then `CCc1noc(C(=O)NC23CC(NC(=O)COc4ccc(Cl)c(F)c4)(C2)C3)n1` [Compound 479, N-{3-[2-(4-chloro-3-fluorophenoxy)acetamido]bicyclo[1.1.1]pentan-1-yl}-3-ethyl-1,2,4-oxadiazole-5-carboxamide], with 50 to 250 nM; and `CCn1ccc(C(=O)NC23CC(NC(=O)COc4ccc(Cl)c(F)c4)(C2)C3)n1` [Compound 850, N-{3-[2-(4-chloro-3-fluorophenoxy)acetamido]bicyclo[1.1.1]pentan-1-yl}-1-ethyl-1H-pyrazole-3-carboxamide], with 50 to 250 nM.

What is called EC50 is the concentration needed to bring the measured effect to its halfway point.
